# Earlier results, collected in patent publication US11399559B2, “Nutritional products having improved lipophilic solubility and bioavailability in an easily mixable form” (ABBOTT LABORATORIES, priority 2015, dated 2022).
# Where two headings read alike, the source gives them in different places.
smiles,measurement,setting,value
Cc1c(C)c2c(c(C)c1O)CC[C@@](C)(CCC[C@H](C)CCC[C@H](C)CCCC(C)C)O2 [RRR-alpha-tocopherol],Biological activity relative to all-rac-alpha-tocopherol,accepted nutritional guidelines,1.36 times
same,Biological activity relative to all-rac-alpha-tocopherol,recent studies,about 2 times
